Measurements as given in patent publication US20100028447A1, “Intranasal, Buccal, And Sublingual Administration Of Metanicotine Analogs” (TARGACEPT, INC., priority 2007, published 2010).
Entries after “also recorded” stand apart in the source; their conditions may differ.

Key:
[1] = In situ brain perfusion, single time-point method; details: for Kin relative to values reported for drugs that do not substantially penetrate the CNS: 50 μM
Description: Animals used in this study were Sprague-Dawley rats (approximate weight 250-300 grams), obtained from Hilltop Lab Animals, Scottdale, Pa. Upon arrival, the rats were assigned randomly to treatment groups and acclimated for at least 24 hours. The animals were housed two per cage and identified by cage labels. A single room was used for this study. The animals were supplied with water and a commercial rodent diet ad libitum. On the day of the experiment, each rat was anesthetized intraperitoneally with Ketamine HCl/Xylazine HCl solution prior to being implanted with a cannula into the left carotid artery. Branch arteries were […], and the cardiac supply was cut off prior to brain perfusion.
Perfusion was performed using the single time-point method. […] Following 30 seconds of perfusion, the pump was stopped, and the brain was removed from the skull immediately. The brain was cut longitudinally in […]. Each left cerebral hemisphere was placed into a chilled tube, frozen on dry ice, and stored frozen at −60° C. to −80° C. until analyzed. […] Test articles were perfused at concentrations of 50 μM. The outline of the experimental treatments and the target and measured concentrations of the test articles and control compounds in the perfusate are presented in Table 3.
The left brain hemisphere from each rat was thawed and weighed. Methanol (20% aqueous) was added to each left brain hemisphere at approximately 4 mL per 1 g of brain tissue, and the mixture was homogenized using sonication with a VirSonic Ultrasonic Cell Disruptor 100 (VirTis). The test articles and two reference compounds were analyzed in the resulting homogenate by using LC/MS/MS.
The unidirectional brain transfer constants Kin (mL/g/min) were determined for the test articles and the high permeability reference, antipyrine, using the following equation for the single-point perfusion assay: […]
where: Cbr/Cpf is the apparent brain distribution volume (mL/g of brain tissue); Cbr is the concentration of drug in the brain tissue (pmol of drug per g of brain tissue); Cpf is the drug concentration in the perfusion fluid (pmol/mL of perfusate); and t is the net perfusion time (minutes).
Graphic representation and statistical analyses of the data were performed using GraphPad Prism software.

[2] = system: cultured human respiratory epithelium; assay: Permeation across cultured human respiratory epithelium (EpiAir tissue), apical-to-basolateral Papp; details: p<0.05, two-tailed t-test, N=3
Excerpt: An in vitro model of MatTek EpiAir® tissue was used for the permeability assessment of the test articles and control compounds. The EpiAir® culture consists of cells that have been cultured to form a pseudo-stratified, highly differentiated model closely resembling the epithelial tissue of the human respiratory tract. The histological cross-sections of the cultured tissue reveal a pseudo-stratified mucociliary phenotype.
EpiAir® tissues plated in 12 well plates were pre-equilibrated for the assay by culturing them for 24 hours at 37° C. with 5% CO2 in a humidified incubator. On the day of the assay, the cultures were washed two times with Dulbeccos' Phosphate Buffered Saline (DPBS buffer) at pH 7.4, and then dosed with donor and receiver buffer applied to the apical and basolateral surfaces of the culture, respectively. The receiver buffer consisted of DPBS, at pH 7.4. The donor solution consisted of DPBS buffer containing the appropriate compounds as specified in Table 1. All treatments were performed in triplicate. The receiver buffer was sampled at 15, 30, 60, and 120 minutes, and the donor buffer was sampled at 120 minutes.
The Lucifer Yellow concentration in the receiver samples was measured using a FluoStar fluorescence plate reader (BMG Laboratories, Durham, N.C.).
The apparent permeability coefficient, Papp, was calculated as follows: […]
where: dCr/dt is the slope of the cumulative concentration in the receiver compartment versus time; Vr is the volume of the receiver compartment; A is the surface area of epithelium available for permeation; and Co is the dosing solution concentration.

[3] = Sprague-Dawley, rat, in vivo, 30 s
[4] = Table 5 Treatment 1: Compound A perfused with references, Average ± STD
[5] = Table 5 Treatment 1: Compound A perfused with references, Rat 1
[6] = Table 5 Treatment 1: Compound A perfused with references, Rat 2
[7] = Table 5 Treatment 1: Compound A perfused with references, Rat 3
[8] = Table 5 Treatment 2: Compound A perfused with references + CYP2D6 inhibitor Quinidine, Average ± STD
[9] = Table 5 Treatment 2: Compound A perfused with references + CYP2D6 inhibitor Quinidine, Rat 1
[10] = Table 5 Treatment 2: Compound A perfused with references + CYP2D6 inhibitor Quinidine, Rat 2
[11] = Table 5 Treatment 2: Compound A perfused with references + CYP2D6 inhibitor Quinidine, Rat 3
[12] = Table 4 Treatment 2: Compound B perfused with references + MAO inhibitor Pargyline, Rat 1
[13] = Table 4 Treatment 2: Compound B perfused with references + MAO inhibitor Pargyline, Rat 2
[14] = Table 4 Treatment 2: Compound B perfused with references + MAO inhibitor Pargyline, Rat 3

CN[C@@H](C)C/C=C/c1cncc(OC)c1 [Compound A, (2S)-(4E)-N-methyl-5-(3-(5-methoxypyridin)yl)-4-penten-2-amine]
Brain penetration (brain concentration, Kin) in the absence or presence of the CYP2D6 inhibitor Quinidine ([1]; N=3): no significant difference; also recorded: did not affect | Kin relative to values reported for drugs that do not substantially penetrate the CNS [1, 3]: more than 100 times | Brain Concentration (corrected for drug retained in vascular volume) [1, 4]: 5504.5 ± 961.7 pmol/g | Kin [1, 4]: 0.198+ ± 0.035 mL/g/min | Brain Concentration (corrected for drug retained in vascular volume) [1, 5]: 6558.8 pmol/g | Kin [1, 5]: 0.236 mL/g/min | Brain Concentration (corrected for drug retained in vascular volume) [1, 6]: 5279.1 pmol/g | Kin [1, 6]: 0.190 mL/g/min | Brain Concentration (corrected for drug retained in vascular volume) [1, 7]: 4675.5 pmol/g | Kin [1, 7]: 0.168 mL/g/min | Brain Concentration (corrected for drug retained in vascular volume) [1, 8]: 5803.0 ± 278.8 pmol/g | Kin [1, 8]: 0.212 ± 0.010 mL/g/min | Brain Concentration (corrected for drug retained in vascular volume) [1, 9]: 5574.4 pmol/g | Kin [1, 9]: 0.203 mL/g/min | Brain Concentration (corrected for drug retained in vascular volume) [1, 10]: 6113.5 pmol/g | Kin [1, 10]: 0.223 mL/g/min | Brain Concentration (corrected for drug retained in vascular volume) [1, 11]: 5721.1 pmol/g | Kin [1, 11]: 0.209 mL/g/min | Average Kin of Compound A (absence of Quinidine) compared with Compound B (absence of Pargyline) ([1]; rat, in vivo): higher | Potential to penetrate the brain ([1]; rat, in vivo): good potential

CNCC/C=C/c1cccnc1 [Compound B, N-methyl-(4-pyridin-3-yl-but-3-enyl)-amine]
Brain concentration and Kin in the presence of the MAO inhibitor Pargyline compared to alone [1, 3]: ^Significantly higher than the corresponding values of Compound B in the absence of enzymatic inhibitor (p < 0.05, two-tailed t-test). | Kin relative to values reported for drugs that do not substantially penetrate the CNS [1, 3]: more than 100 times | Brain Concentration (corrected for drug retained in vascular volume) ([1]; Table 4 Treatment 1: Compound B perfused with references, Average ± STD): 2681.0 ± 513.0 pmol/g | Brain Concentration (corrected for drug retained in vascular volume) ([1]; Table 4 Treatment 1: Compound B perfused with references, Rat 1): 2725.9 pmol/g | Brain Concentration (corrected for drug retained in vascular volume) ([1]; Table 4 Treatment 1: Compound B perfused with references, Rat 2): 3170.1 pmol/g | Brain Concentration (corrected for drug retained in vascular volume) ([1]; Table 4 Treatment 1: Compound B perfused with references, Rat 3): 2147.0 pmol/g | Brain Concentration (corrected for drug retained in vascular volume) ([1]; Table 4 Treatment 2: Compound B perfused with references + MAO inhibitor Pargyline, Average ± STD): 3652.8^ ± 293.1 pmol/g | Brain Concentration (corrected for drug retained in vascular volume) [1, 12]: 3358.2 pmol/g | Kin [1, 12]: 0.110 mL/g/min | Brain Concentration (corrected for drug retained in vascular volume) [1, 13]: 3655.8 pmol/g | Kin [1, 13]: 0.120 mL/g/min | Brain Concentration (corrected for drug retained in vascular volume) [1, 14]: 3944.4 pmol/g | Kin [1, 14]: 0.129 mL/g/min | Brain concentration and Kin in the presence of the MAO inhibitor Pargyline compared to alone ([1]; rat, in vivo): significantly increased | Potential to penetrate the brain ([1]; rat, in vivo): good potential | Permeation (Papp) in the presence of the MAO inhibitor Pargyline compared to alone [2]: significantly lower Papp value in the absence, than in the presence; also recorded: significant increased
